According to US6645918B1, “N-([1,2,4]triazoloazinyl)thiophenesulfonamide compounds and their use as herbicides” (Dow AgroSciences LLC, priority 2000, dated 2003):

What was measured:
Type in all cases: in vivo
[1] = system: chickweed (Stellaria media); test: Postemergence herbicidal activity, chickweed; conditions: foliar spray, visual after 2 weeks, 0 no injury, 100 complete kill
Procedure, shortened: (§1)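 Injury rated visually at 2 weeks, 0 (none) to 100% (complete kill), relative to carrier-sprayed controls. Foliar spray applied to 7–21-day-old seedlings at first or second true leaf, with rates in ppm (1 ppm ≈ 1 g/ha) in an aqueous acetone/DMSO/crop oil/surfactant mix.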

[2] = system: cocklebur (Xanthium strumarium); test: Postemergence herbicidal activity, cocklebur; conditions: foliar spray, visual after 2 weeks, 0 no injury, 100 complete kill
Procedure, shortened: as §1

[3] = system: lambsquarters (Chenopodium album); test: Postemergence herbicidal activity, lambsquarters; conditions: foliar spray, visual after 2 weeks, 0 no injury, 100 complete kill
Procedure, shortened: as §1

[4] = system: morningglory (Ipomoea hederacea); test: Postemergence herbicidal activity, morningglory; conditions: foliar spray, visual after 2 weeks, 0 no injury, 100 complete kill
Procedure, shortened: as §1

[5] = system: pigweed (Amaranthus retroflexus); test: Postemergence herbicidal activity, pigweed; conditions: foliar spray, visual after 2 weeks, 0 no injury, 100 complete kill
Procedure, shortened: as §1

[6] = system: velvetleaf (Abutilion theophrasti); test: Postemergence herbicidal activity, velvetleaf; conditions: foliar spray, visual after 2 weeks, 0 no injury, 100 complete kill
Procedure, shortened: as §1

[7] = system: viola (Viola tricolor); test: Postemergence herbicidal activity, viola; conditions: foliar spray, visual after 2 weeks, 0 no injury, 100 complete kill
Procedure, shortened: as §1

[8] = system: wild buckwheat (Polygonum convolvulus); test: Postemergence herbicidal activity, wild buckwheat; conditions: foliar spray, visual after 2 weeks, 0 no injury, 100 complete kill
Procedure, shortened: as §1

[9] = system: blackgrass (Alopecurus myosuroides); test: Postemergence herbicidal activity, blackgrass; conditions: foliar spray, visual after 2 weeks, 0 no injury, 100 complete kill
Procedure, shortened: as §1

[10] = system: giant foxtail (Setaria faberi); test: Postemergence herbicidal activity, giant foxtail; conditions: foliar spray, visual after 2 weeks, 0 no injury, 100 complete kill
Procedure, shortened: as §1

[11] = system: Rox orange sorghum (Sorghum bicolor); test: Postemergence herbicidal activity, Rox orange sorghum; conditions: foliar spray, visual after 2 weeks, 0 no injury, 100 complete kill
Procedure, shortened: as §1

[12] = system: wild oats (Avena fatua); test: Postemergence herbicidal activity, wild oats; conditions: foliar spray, visual after 2 weeks, 0 no injury, 100 complete kill
Procedure, shortened: as §1

[13] = system: cocklebur (Xanthium strumarium); test: Preemergence herbicidal activity, cocklebur; conditions: soil spray, visual after 3 weeks, 0 no injury, 100 complete kill or no germination
Procedure, shortened: (§2)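 Visual rating 3 weeks after treatment, 0-100% injury versus untreated pots, where 100 means complete kill or no germination. Soil of seeded pots was sprayed preemergence with aqueous Tween 155 dilutions of acetone/DMSO stocks, up to 4.48 kg/ha. Plants were grown in a greenhouse at about 23-29 °C day/22-28 °C night with ~15 h light.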

[14] = system: lambsquarters (Chenopodium album); test: Preemergence herbicidal activity, lambsquarters; conditions: soil spray, visual after 3 weeks, 0 no injury, 100 complete kill or no germination
Procedure, shortened: as §2

[15] = system: morningglory (Ipomoea hederacea); test: Preemergence herbicidal activity, morningglory; conditions: soil spray, visual after 3 weeks, 0 no injury, 100 complete kill or no germination
Procedure, shortened: as §2

[16] = system: pigweed (Amaranthus retroflexus); test: Preemergence herbicidal activity, pigweed; conditions: soil spray, visual after 3 weeks, 0 no injury, 100 complete kill or no germination
Procedure, shortened: as §2

[17] = system: velvetleaf (Abutilion theophrasti); test: Preemergence herbicidal activity, velvetleaf; conditions: soil spray, visual after 3 weeks, 0 no injury, 100 complete kill or no germination
Procedure, shortened: as §2

[18] = system: wild poinsettia (Euphorbia heterophylla); test: Preemergence herbicidal activity, wild poinsettia; conditions: soil spray, visual after 3 weeks, 0 no injury, 100 complete kill or no germination
Procedure, shortened: as §2

[19] = system: blackgrass (Alopecurus myosuroides); test: Preemergence herbicidal activity, blackgrass; conditions: soil spray, visual after 3 weeks, 0 no injury, 100 complete kill or no germination
Procedure, shortened: as §2

[20] = system: barnyardgrass (Echinochloa crus-galli); test: Preemergence herbicidal activity, barnyardgrass; conditions: soil spray, visual after 3 weeks, 0 no injury, 100 complete kill or no germination
Procedure, shortened: as §2

[21] = system: crabgrass (Digitaria sanguinalis); test: Preemergence herbicidal activity, crabgrass; conditions: soil spray, visual after 3 weeks, 0 no injury, 100 complete kill or no germination
Procedure, shortened: as §2

[22] = system: giant foxtail (Setaria faberi); test: Preemergence herbicidal activity, giant foxtail; conditions: soil spray, visual after 3 weeks, 0 no injury, 100 complete kill or no germination
Procedure, shortened: as §2

[23] = system: Rox orange sorghum (Sorghum bicolor); test: Preemergence herbicidal activity, Rox orange sorghum; conditions: soil spray, visual after 3 weeks, 0 no injury, 100 complete kill or no germination
Procedure, shortened: as §2

[24] = system: wild oats (Avena fatua); test: Preemergence herbicidal activity, wild oats; conditions: soil spray, visual after 3 weeks, 0 no injury, 100 complete kill or no germination
Procedure, shortened: as §2

Compound: COc1cscc1S(=O)(=O)Nc1nc2c(C)cnc(OC)n2n1 [Compound 17]
- STEME postemergence injury score 0-100 ([1]; 31.3 ppm): 90%
- XANST postemergence injury score 0-100 ([2]; 31.3 ppm): 95%
- CHEAL postemergence injury score 0-100 ([3]; 31.3 ppm): 100%
- IPOHE postemergence injury score 0-100 ([4]; 31.3 ppm): 70%
- AMARE postemergence injury score 0-100 ([5]; 31.3 ppm): 95%
- ABUTH postemergence injury score 0-100 ([6]; 31.3 ppm): 85%
- VIOTR postemergence injury score 0-100 ([7]; 31.3 ppm): 70%
- POLCO postemergence injury score 0-100 ([8]; 31.3 ppm): 60%
- ALOMY postemergence injury score 0-100 ([9]; 31.3 ppm): 70%
- SETFA postemergence injury score 0-100 ([10]; 31.3 ppm): 90%
- SORBI postemergence injury score 0-100 ([11]; 31.3 ppm): 90%
- AVEFA postemergence injury score 0-100 ([12]; 31.3 ppm): 85%
- XANST preemergence injury score 0-100 ([13]; 35 g/Ha): 70%
- CHEAL preemergence injury score 0-100 ([14]; 35 g/Ha): 100%
- IPOHE preemergence injury score 0-100 ([15]; 35 g/Ha): 0%
- AMARE preemergence injury score 0-100 ([16]; 35 g/Ha): 70%
- ABUTH preemergence injury score 0-100 ([17]; 35 g/Ha): 30%
- EPHHL preemergence injury score 0-100 ([18]; 35 g/Ha): 60%
- ALOMY preemergence injury score 0-100 ([19]; 35 g/Ha): 100%
- ECHCG preemergence injury score 0-100 ([20]; 35 g/Ha): 30%
- DIGSA preemergence injury score 0-100 ([21]; 35 g/Ha): 30%
- SETFA preemergence injury score 0-100 ([22]; 35 g/Ha): 60%
- SORBI preemergence injury score 0-100 ([23]; 35 g/Ha): 60%
- AVEFA preemergence injury score 0-100 ([24]; 35 g/Ha): 30%

Compound: COc1csc(C)c1S(=O)(=O)Nc1nc2c(OC)cnc(OC)n2n1 [Compound 23]
- STEME postemergence injury score 0-100 ([1]; 15.6 ppm): 80%
- XANST postemergence injury score 0-100 ([2]; 15.6 ppm): 90%
- CHEAL postemergence injury score 0-100 ([3]; 15.6 ppm): 80%
- IPOHE postemergence injury score 0-100 ([4]; 15.6 ppm): 40%
- AMARE postemergence injury score 0-100 ([5]; 15.6 ppm): 90%
- ABUTH postemergence injury score 0-100 ([6]; 15.6 ppm): 90%
- VIOTR postemergence injury score 0-100 ([7]; 15.6 ppm): 70%
- POLCO postemergence injury score 0-100 ([8]; 15.6 ppm): 75%
- ALOMY postemergence injury score 0-100 ([9]; 15.6 ppm): 70%
- SETFA postemergence injury score 0-100 ([10]; 15.6 ppm): 90%
- SORBI postemergence injury score 0-100 ([11]; 15.6 ppm): 90%
- AVEFA postemergence injury score 0-100 ([12]; 15.6 ppm): 70%
- XANST preemergence injury score 0-100 ([13]; 4.4 g/Ha): 70%
- CHEAL preemergence injury score 0-100 ([14]; 4.4 g/Ha): 90%
- IPOHE preemergence injury score 0-100 ([15]; 4.4 g/Ha): 80%
- AMARE preemergence injury score 0-100 ([16]; 4.4 g/Ha): 100%
- ABUTH preemergence injury score 0-100 ([17]; 4.4 g/Ha): 90%
- EPHHL preemergence injury score 0-100 ([18]; 4.4 g/Ha): 90%
- ALOMY preemergence injury score 0-100 ([19]; 4.4 g/Ha): 98%
- ECHCG preemergence injury score 0-100 ([20]; 4.4 g/Ha): 80%
- DIGSA preemergence injury score 0-100 ([21]; 4.4 g/Ha): 100%
- SETFA preemergence injury score 0-100 ([22]; 4.4 g/Ha): 98%
- SORBI preemergence injury score 0-100 ([23]; 4.4 g/Ha): 100%
- AVEFA preemergence injury score 0-100 ([24]; 4.4 g/Ha): 90%

Compound: COc1cc(OC)n2nc(NS(=O)(=O)c3c(OC)csc3C)nc2n1 [Compound 24]
- STEME postemergence injury score 0-100 ([1]; 7.8 ppm): 80%
- XANST postemergence injury score 0-100 ([2]; 7.8 ppm): 90%
- CHEAL postemergence injury score 0-100 ([3]; 7.8 ppm): 85%
- IPOHE postemergence injury score 0-100 ([4]; 7.8 ppm): 80%
- AMARE postemergence injury score 0-100 ([5]; 7.8 ppm): 100%
- ABUTH postemergence injury score 0-100 ([6]; 7.8 ppm): 70%
- VIOTR postemergence injury score 0-100 ([7]; 7.8 ppm): 70%
- POLCO postemergence injury score 0-100 ([8]; 7.8 ppm): 70%
- ALOMY postemergence injury score 0-100 ([9]; 7.8 ppm): 80%
- SETFA postemergence injury score 0-100 ([10]; 7.8 ppm): 90%
- SORBI postemergence injury score 0-100 ([11]; 7.8 ppm): 100%
- AVEFA postemergence injury score 0-100 ([12]; 7.8 ppm): 70%
- XANST preemergence injury score 0-100 ([13]; 8.8 g/Ha): 70%
- CHEAL preemergence injury score 0-100 ([14]; 8.8 g/Ha): 100%
- IPOHE preemergence injury score 0-100 ([15]; 8.8 g/Ha): 98%
- AMARE preemergence injury score 0-100 ([16]; 8.8 g/Ha): 90%
- ABUTH preemergence injury score 0-100 ([17]; 8.8 g/Ha): 98%
- EPHHL preemergence injury score 0-100 ([18]; 8.8 g/Ha): 80%
- ALOMY preemergence injury score 0-100 ([19]; 8.8 g/Ha): 90%
- ECHCG preemergence injury score 0-100 ([20]; 8.8 g/Ha): 40%
- DIGSA preemergence injury score 0-100 ([21]; 8.8 g/Ha): 98%
- SETFA preemergence injury score 0-100 ([22]; 8.8 g/Ha): 100%
- SORBI preemergence injury score 0-100 ([23]; 8.8 g/Ha): 100%
- AVEFA preemergence injury score 0-100 ([24]; 8.8 g/Ha): 70%
